Results published in ChEMBL document CHEMBL3526012, “Metabolism of (2S)-pterosin A: identification of the phase I and phase II metabolites in rat urine” (Drug Metab Dispos, 2012).
≈ marks a conversion by molar mass, not a printed value.

What was measured:
[1] = Drug recovery in Wistar rat urine assessed as retention time treated with (2S)-Pterosin at 100 mg/kg, po administered via gavage measured up to 24 hrs by HRESIMS analysis; type: ADME, organism-based; design: dose 100 mg/kg, route oral; settings: in vivo
[2] = Drug recovery in Wistar rat urine treated with (2S)-Pterosin at 100 mg/kg, po administered via gavage measured up to 24 hrs by reverse-phase HPLC analysis; type: ADME, organism-based; design: dose 100 mg/kg, route oral; settings: in vivo
[3] = Drug recovery in Wistar rat urine at 100 mg/kg, po administered via gavage measured up to 24 hrs by HRESIMS analysis; type: ADME, organism-based; design: dose 100 mg/kg, route oral; settings: read-out: Drug recovery
[4] = Drug recovery in Wistar rat urine at 100 mg/kg, po administered via gavage measured up to 24 hrs by reverse-phase HPLC analysis; type: ADME, organism-based; design: dose 100 mg/kg, route oral; settings: in vivo
[5] = Drug recovery in Wistar rat urine assessed as retention time at 100 mg/kg, po administered via gavage measured up to 24 hrs by HRESIMS analysis; type: ADME, organism-based; design: dose 100 mg/kg, route oral; settings: in vivo
HeLa = assay: Cytotoxicity against human HeLa cells; type: cell-based
[6] = Cytotoxicity against human HL60 cells; type: cell-based; settings: HL-60

Cc1cc2c(c(C)c1CCO[C@@H]1O[C@H](C(=O)O)[C@@H](O)[C@H](O)[C@H]1O)C(=O)C(C)C2 (stereo partly drawn)
Retention_time [1]: 44.2 min
Drug recovery [2]: metabolite_detected

Cc1cc2c(c(C)c1CCO[C@@H]1O[C@H](C(=O)O)[C@@H](O)[C@H](O)[C@H]1O)C(=O)[C@](C)(CO)C2
Retention_time [1]: 29.61 min
Drug recovery [2]: metabolite_detected

Cc1cc2c(c(C)c1CC(=O)O)C(=O)[C@](C)(CO)C2
Retention_time [1]: 37.27 min
Drug recovery [2]: metabolite_detected

Cc1cc2c(c(C)c1CCO)C(=O)[C@](C)(CO)C2
dose excreted at 24 h [3]: 2.64%
Drug recovery [4]: Active
Retention_time [5]: 36.51 min

Cc1c(CCO)c(CO)cc2c1C(=O)C(C)C2 (racemic)
Retention_time [1]: 29.61 min
Drug recovery [2]: metabolite_detected

Cc1cc2c(c(C)c1CC(=O)O[C@@H]1O[C@H](C(=O)O)[C@@H](O)[C@H](O)[C@H]1O)C(=O)[C@](C)(CO)C2
Retention_time [1]: 24.6 min
Drug recovery [2]: metabolite_detected

Cc1cc2c(c(C)c1C(O)CO)C(=O)C(C)C2 (racemic)
Retention_time [1]: 35.09 min
Drug recovery [2]: metabolite_detected

Cc1cc2c(c(C)c1CCO)C(=O)[C@](C)(CO[C@@H]1O[C@H](C(=O)O)[C@@H](O)[C@H](O)[C@H]1O)C2
Retention_time [1]: 32.08 min
Drug recovery [2]: metabolite_detected

Cc1cc2c(c(C)c1CCO)C(=O)[C@](C)(CO)[C@H]2O
Retention_time [1]: 14.12 min
Drug recovery [2]: metabolite_detected

Cc1cc2c(c(C)c1CC(=O)O)C(=O)C(C)C2 (racemic)
Retention_time [1]: 48.39 min
Drug recovery [2]: metabolite_detected
IC50 (HeLa): 30 µg/mL (≈ 129 µM)

Cc1cc2c(c(C)c1CCO)C(=O)[C@@H](C)[C@@H]2O
Retention_time [1]: 27.6 min
Drug recovery [2]: metabolite_detected

Cc1cc2c(c(C)c1C)C(=O)[C@](C)(CO)[C@@H]2O
Retention_time [1]: 46.2 min
Drug recovery [2]: metabolite_detected

Cc1cc2c(c(C)c1CCO)C(=O)C(C)C2 (racemic)
Retention_time [1]: 49.54 min
Drug recovery [2]: metabolite_detected
IC50 [6]: 8.7 µg/mL (≈ 39.9 µM)

COC(=O)Cc1c(C)cc2c(c1C)C(=O)[C@](C)(CO)C2
Retention_time [1]: 45.33 min
Drug recovery [2]: metabolite_detected

Cc1cc2c(c(C)c1CCO)C(=O)[C@H](C)[C@@H]2O
Retention_time [1]: 25.27 min
Drug recovery [2]: metabolite_detected

Cc1c2c(cc3c1C(=O)[C@](C)(CO)C3)C(=O)OCC2
Retention_time [1]: 29.61 min
Drug recovery [2]: metabolite_detected

Cc1cc2c(c(C)c1CC(=O)O)C(=O)[C@](C)(CO)[C@@H]2O
Retention_time [1]: 26.11 min
Drug recovery [2]: metabolite_detected

Cc1cc2c(c(C)c1CCO)C(=O)[C@](C)(CO)[C@@H]2O
Retention_time [1]: 20.74 min
Drug recovery [2]: metabolite_detected

Cc1c2c(cc3c1C(=O)[C@](C)(CO)C3)COC(=O)C2
Retention_time [1]: 23.37 min
Drug recovery [2]: metabolite_detected

Cc1c(CCO)c(CO)cc2c1C(=O)[C@](C)(CO)C2
Retention_time [1]: 20.2 min
Drug recovery [2]: metabolite_detected
